Values of other authors as cited in publication PMC4404702 (Molecular imaging and biology : MIB : the official …, 2014).

Assays:
σ2 = conditions: read-out: Ki−σ2
σ1 = conditions: read-out: Ki−σ1

In the case of `O=C(Cc1cccc(Br)c1)NCc1ccc(F)cc1` [YUN-143, N-(4′-fluorobenzyl)-4-(3-bromophenyl)acetamide], the Ki (σ2) is listed as 6.1 ± 1.5 nM and the Ki (σ1) is listed as 1.2 ± 0.2 nM.
